Molecular target: T1, HpAC1 (Hippeastrum hybrid cultivar, UniProt E1AQY1)
T1 construct: gene AC1
T1 sequence (E1AQY1 1-206): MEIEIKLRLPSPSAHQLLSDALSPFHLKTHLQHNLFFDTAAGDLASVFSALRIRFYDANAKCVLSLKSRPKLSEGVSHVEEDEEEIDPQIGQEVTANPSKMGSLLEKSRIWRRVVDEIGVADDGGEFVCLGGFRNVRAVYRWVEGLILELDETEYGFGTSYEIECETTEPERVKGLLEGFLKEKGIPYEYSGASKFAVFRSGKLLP
Assay: malachite green phosphate release
Assay type: biochemical
Conditions: divalent cation, pH 7.5, 30 °C; hydrolysis

SMILES: O=P(O)(O)OP(=O)(O)OP(=O)(O)O [PPPi]
- malachite green phosphate release: HpAC1 could hydrolyze both organic and inorganic triphosphates like MdTTM2

Reference: publication PMC9582125, “Two triphosphate tunnel metalloenzymes from apple exhibit adenylyl cyclase activity” (Frontiers in Plant Science, 2022)
